Where two headings read alike, the source gives them in different places.
Assays:
[1] = system: cancer cell lines; parameters: method as in PMID 32920363, PMID 29407956, PMID 36770936, PMID 36015154, PMID 35078049; conditions: cited from earlier work
[2] = system: BRAF^V600E; parameters: method as in PMID 32920363, PMID 29407956, PMID 36770936, PMID 36015154, PMID 35078049; conditions: cited from earlier work
[3] = Cell viability assay (MTT) on MCF-10A; format: cell-based; conditions: human, MCF-10A mammary gland epithelial cells, MCF-10A cells, four days
Procedure: To assess the viability of compounds IV and Va–i, the human mammary gland epithelial (MCF-10A) cell line was exploited. Compounds IV and Va–i were cultured for four days on MCF-10A cells before being evaluated for vitality using the MTT assay.
To test the viability of the new compounds, the human mammary gland epithelial (MCF-10A) cell line was used. Compounds IV and Va–i were incubated on MCF-10A cells for four days before being tested for viability using the MTT assay. See Supplementary Materials.
4.2. Biological evaluation
4.2.1. Cytotoxic activity using MTT Assay and evaluation of IC50
MTT assay was performed to investigate the effect of the synthesized compounds on mammary epithelial cells (MCF-10A). The cells were propagated in medium consisting of Ham's F-12 medium/ Dulbecco's modified Eagle's medium (DMEM) (1:1) supplemented with 10% foetal calf serum, 2 mM glutamine, insulin (10 μg/mL), hydrocortisone (500 ng/mL) and epidermal growth factor (20 ng/mL). Trypsin ethylenediamine tetra acetic acid (EDTA) was used to passage the cells after every 2-3 days. 96-well flat-bottomed cell culture plates were used to seed the cells at a density of 10^4 cells mL-1. The medium was aspirated from all the wells of culture plates after 24 h followed by the addition of synthesized compounds (in 200 μL medium to yield a final concentration of 0.1% (v/v) dimethyl sulfoxide) into individual wells of the plates. Four wells were designated to a single compound. The plates were allowed to incubate at 37°C for 96 h. Afterwards, the medium was aspirated and 3-[4,5-dimethylthiazol-2-yl]-2,5-diphenyltetrazolium bromide (MTT) (0.4 mg/mL) in medium was added to each well and subsequently incubated for 3 h. The medium was aspirated and 150 μL dimethyl sulfoxide (DMSO) was added to each well. The plates were vortexed followed by the measurement of absorbance at 540 nm on a microplate reader. The results were presented as inhibition (%) of proliferation in contrast to controls comprising 0.1%

[4] = system: human epithelial (A-549) cancer cell line; assay: Antiproliferative assay, A-549; format: cell-based; conditions: A549, read-out: Antiproliferative Activity IC50 ± SEM, A-549
Procedure: (§1) 4.2.1.2. Assay for antiproliferative effect
(§2) To explore the antiproliferative potential of compounds propidium iodide fluorescence assay was performed using different cell lines such as Panc-1 (pancreas cancer cell line), MCF-7 (breast cancer cell line), HT-29 (colon cancer cell line) and A-549 (epithelial cancer cell line), respectively.
(§3) To calculate the total nuclear DNA, a fluorescent dye (propidium iodide, PI) is used which can attach to the DNA, thus offering a quick and precise technique. PI cannot pass through the cell membrane and its signal intensity can be considered as directly proportional to quantity of cellular
(§4) DNA. Cells whose cell membranes are damaged or have changed permeability are counted as dead ones. The assay was performed by seeding the cells of different cell lines at a density of 3000-7500 cells/well (in200μl medium) in culture plates followed by incubation for 24h at 37 °C in humidified 5%CO2/95% air atmospheric conditions. The medium was removed; the compounds were added to the plates at 10 μM concentrations (in 0.1% DMSO) in triplicates, followed by incubation for 48h. DMSO (0.1%) was used as control. After incubation, medium was removed followed by the addition of PI (25 μl, 50μg/mL in water/medium) to each well of the plates. At - 80 °C, the plates were allowed to freeze for 24 h, followed by thawing at 25 °C. A fluorometer (Polar-Star BMG Tech) was used to record the readings at excitation and emission wavelengths of 530 and 620 nm for each well. The percentage cytotoxicity of compounds was calculated using […]
(§5) Where ATC= Absorbance of treated cells and AC= Absorbance of control. Erlotinib was used as positive control in the assay.

[5] = system: breast cancer (MCF-7) cell line; assay: Antiproliferative assay, MCF-7; format: cell-based; conditions: Homo sapiens, MCF7; read-out: Antiproliferative Activity IC50 ± SEM, MCF-7
Procedure: as §1, §2, §3, §4, §5

[6] = system: pancreatic cancer (Panc-1) cell line; assay: Antiproliferative assay, Panc-1; format: cell-based; conditions: Homo sapiens, read-out: Antiproliferative Activity IC50 ± SEM, Panc-1
Procedure: as §1, §2, §3, §4, §5

[7] = system: colon cancer (HT-29) cell line; assay: Antiproliferative assay, HT-29; format: cell-based; conditions: Homo sapiens, read-out: Antiproliferative Activity IC50 ± SEM, HT-29
Procedure: as §1, §2, §3, §4, §5

[8] = system: four human cancer cell lines (A-549, MCF-7, Panc-1, HT-29); assay: Antiproliferative assay, average over the four cancer cell lines (GI50); format: cell-based; conditions: average of the four cancer cell lines
Procedure: See Supplementary Materials.
as §1
To explore the antiproliferative potential of compounds propidium iodide fluorescence assay was performed using different cell lines such as Panc-1 (pancreas cancer cell line), MCF-7 (breast […]
as §3
DNA. Cells whose cell membranes are damaged or have changed permeability are counted as dead ones. The assay was performed by seeding the cells of different cell lines at a density of 3000- […]
The medium was removed; the compounds were added to the plates at 10 μM concentrations (in 0.1% DMSO) in triplicates, followed by incubation for 48h. DMSO (0.1%) was used as control. After incubation, medium was removed followed by the addition of PI (25 μl, 50μg/mL in water/medium) to each well of the plates. At - 80 °C, the plates were allowed to freeze for 24 h, followed by thawing at 25 °C. A fluorometer (Polar-Star BMG Tech) was used to record the readings at excitation and emission wavelengths of 530 and 620 nm for each well. The percentage cytotoxicity of compounds was calculated using […]
Where ATC= Absorbance of treated cells and AC= Absorbance of control. […]
positive control in the assay.

[9] = system: caspase-3; assay: Caspase 3 assay in A-549 cells; format: cell-based, human; conditions: for Caspase-3 Conc: untreated control 66 pg/mL; for Caspase-3 Fold Change: vs untreated control
Procedure: Caspases play a crucial function in the induction and completion of apoptosis. Caspase-3 is an essential caspase that cleaves different proteins in cells, resulting in apoptosis. […]
4.2.5. Caspase-3 activation assay
Allow all reagents to reach room temperature before use. Gently mix all liquid reagents prior to use. Determine the number of 8-well strips needed for the assay. Insert these in the frame(s) for current use. Add 100 μl of the Standard Diluent Buffer to the zero standard wells. Well(s) reserved for chromogen blank should be left empty. Add 100 μl of standards and controls or diluted samples to the appropriate microtiter wells. The sample dilution chosen should be optimized for each experimental system. Tap gently on side of plate to mix. Cover wells with plate cover and incubate for 2 hours at room temperature. Thoroughly aspirate or decant solution from wells and discard the liquid, Wash wells 4 times. Pipette 100 μl of Caspase-3 (Active) Detection Antibody solution into each well except the chromogen blank(s). Tap gently on the side of the plate to mix. Cover plate with plate cover and incubate for 1 hour at room temperature. Thoroughly aspirate or decant solution from wells and discard the liquid, Wash wells 4 times. Add 100 μl Anti-Rabbit IgG HRP Working Solution to each well except the chromogen blank(s). Prepare the working dilution as described in Preparing IgG HRP. Cover wells with the plate cover and incubate for 30 minutes at room temperature. Thoroughly aspirate or decant solution from wells and discard the liquid. Wash wells 4 times. Add 100 μl of Stabilized Chromoge n to each well. The liquid in the wells will begin to turn blue. Incubate for 30 minutes at room temperature and in the dark. The incubation time for chromogen substrate is often determined by the microtiter plate reader used. Many plate readers have the capacity to record a maximum optical density (O.D.) of 2.0. The O.D. values should be monitored, and the substrate reaction stopped before the O.D. of the positive wells exceeds the limits of the instrument. The O.D. values at 450 nm can only be read after the Stop Solution has been added to each well. If using a reader that records only to 2.0 O.D., stopping the assay after […]
Add 100 μl of Stop Solution to each well. Tap side of plate gently to mix. The solution in the wells should change from blue to yellow. Read the absorbance of each well at 450 nm having blanked the plate reader against a chromogen blank composed of 100 μl each of Stabilized Chromogen and Stop Solution. Read the plate within 2 hours after adding the Stop Solution. Use a curve fitting software to generate the standard curve. A four-parameter algorithm provides the best standard curve fit. Read the concentrations for unknown samples and controls from the standard curve. Multiply value(s) obtained for sample(s) by the appropriate dilution factor to correct for the dilution in step 3. Samples producing signals greater than that of the highest standard should be diluted in Standard Diluent Buffer and reanalyzed.

[10] = molecular target: T1, EGFR (Homo sapiens, UniProt P00533); assay: EGFR inhibitory assay
[11] = molecular target: T2, VEGFR-2 (Homo sapiens, UniProt P35968); assay: VEGFR-2 inhibitory assay
Procedure: Prepare all the solutions using autoclaved, deionized water and analytical grade reagents.
and store all the reagents at room temperature (unless indicated otherwise).
solution, add 5 mL ultra-pure water; 1×Kinase Assay Buffer: add 25 mL HEPES solution (1 M),
water, adjust pH to 7.5 and constant volume to 500 mL using ultrapure water; 4×Stop solution (40
mM): Mix 0.8 mL of the foregoing EDTA solution, 1 mL 10×Detection Buffer and 8.2 mL ultra-
pure water; 1×Detection Buffer: Mix 1 mL 10×Detection Buffer with 9 mL water; 4×VEGFR
μM) was added to 624 μL 1×Kinase Assay Buffer and mixed; 4×ULight™-labeled JAK1
concentration 5 μM) was added to 576 μL 1×Kinase Assay Buffer and mixed; 4×ATP Solution
2×substrate/ATP Mix: 560 μL foregoing 4×ULight™-labeled JAK1 and 560 μL 4×ATP solution
and mixed (prepared before use). The assays used an ULight-labeled peptide substrate and a
Europium-W1024-labeled antiphosphotyrosine antibody. The VEGFR-2 was purchased from
Carna Biosciences, Inc. (New York, USA). The 384-well plates were obtained from PerkinElmer.
5 μL 2×VEGFR-2 kinase solution (0.5 nM)
was added to 384-well plates homogeneous mixing and pre-reaction at room temperature for 30 min. Next, 2.5 μL 4×Ultra ULightTM-JAK-1(Tyr1023) Peptide (200 nM)/ATP (40 μM) was added to the corresponding wells of a 384-well plate. Negative control: 2.5 μL/well 4×substrate/ATP mixture and 7.5 μL 1×kinase assay buffer in 384-well plate well. Positive control:
μL/well 2×VEGFR-2 kinase solution was added to the 384-well plate, The final concentration of DMSO in the mixing system was 4%. After incubation at room temperature and dark for 60 min, 5 μL 4×stop solution was added to corresponding wells to react for 5 min and then 5 μL 4×detection mix was added to the corresponding wells of a 384-well plate. The mixture was centrifugally mixed and stayed for 60 min at room temperature for color development. The plate was read using a Envision plate reader. The inhibition rate (%) = (positive well reading-compound well reading)/(positive well reading-negative well reading)×100. The corresponding IC50 values were calculated using GraphPad Prism 5.0.

[12] = molecular target: BRAF^V600E (Mus musculus, UniProt P28028, V585E); assay: BRAF^V600E inhibitory assay
Procedure: BRAFV600E inhibitory assay
V600E mutant BRAF kinase assay was performed to investigate the activity of tested compounds against BRAF. Mouse full-length GST-tagged BRAFV600E (7.5 ng, Invitrogen, PV3849) was pre-incubated with drug (1 µL) and assay dilution buffer (4 µL) for 60 min at 25 °C. In assay dilution buffer, a solution (5 µL) containing MgCl2 (30 mM), ATP (200 µM), recombinant human full length (200 ng) and N-terminal His-tagged MEK1 (Invitrogen) was added to start the assay, subsequent to incubation for 25 min at 25 °C. The assay was stopped using 5X protein denaturing buffer (LDS) solution (5 µL). To further denature the protein, heat (70° C) was applied for 5 min.
10 µL of each reaction was loaded into the precast plates and electrophoresis was allowed to proceed. After completion of electrophoresis, the front part of the precast gel plate (holding hot ATP) was cut and afterwards cast-off. The dried gel was developed using a phosphor screen.

[13] = system: CDK2; parameters: method as in PMID 32920363, PMID 29407956, PMID 36770936, PMID 36015154, PMID 35078049; conditions: cited from earlier work
[14] = system: mutant EGFR vs wild-type EGFR; conditions: cited from earlier work
[15] = system: EGFR^T790M; parameters: method as in PMID 32920363, PMID 29407956, PMID 36770936, PMID 36015154, PMID 35078049; conditions: cited from earlier work
[16] = molecular target: T2, VEGFR-2; parameters: purchased Carna Biosciences, Inc; conditions: cited from earlier work
[17] = molecular target: T1, EGFR; parameters: 645–1186); His6 (N); made in house; host or cells: Sf-9 insect cells (baculovirus; pBlueBacHis2B / pFASTBacHTc; conditions: cited from earlier work
[18] = four cancer cell lines, read-out: GI50 vs four cancer cell lines

T1 sequence (P00533 669-1210): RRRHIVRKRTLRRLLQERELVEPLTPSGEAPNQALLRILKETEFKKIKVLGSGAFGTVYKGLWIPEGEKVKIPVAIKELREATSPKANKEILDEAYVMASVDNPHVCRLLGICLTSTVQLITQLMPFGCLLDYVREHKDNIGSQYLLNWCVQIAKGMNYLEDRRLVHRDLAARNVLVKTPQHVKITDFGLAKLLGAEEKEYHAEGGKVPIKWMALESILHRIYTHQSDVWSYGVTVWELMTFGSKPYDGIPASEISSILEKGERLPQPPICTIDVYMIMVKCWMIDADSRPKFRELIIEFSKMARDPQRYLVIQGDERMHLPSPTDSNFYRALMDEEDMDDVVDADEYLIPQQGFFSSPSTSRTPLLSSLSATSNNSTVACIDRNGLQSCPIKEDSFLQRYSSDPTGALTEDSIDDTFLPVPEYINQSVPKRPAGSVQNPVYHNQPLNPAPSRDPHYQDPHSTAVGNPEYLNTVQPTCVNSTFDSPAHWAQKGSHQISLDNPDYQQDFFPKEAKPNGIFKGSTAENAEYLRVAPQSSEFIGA
BRAF^V600E (Mus musculus, UniProt P28028, V585E), sequence (P28028 whole entry V585E): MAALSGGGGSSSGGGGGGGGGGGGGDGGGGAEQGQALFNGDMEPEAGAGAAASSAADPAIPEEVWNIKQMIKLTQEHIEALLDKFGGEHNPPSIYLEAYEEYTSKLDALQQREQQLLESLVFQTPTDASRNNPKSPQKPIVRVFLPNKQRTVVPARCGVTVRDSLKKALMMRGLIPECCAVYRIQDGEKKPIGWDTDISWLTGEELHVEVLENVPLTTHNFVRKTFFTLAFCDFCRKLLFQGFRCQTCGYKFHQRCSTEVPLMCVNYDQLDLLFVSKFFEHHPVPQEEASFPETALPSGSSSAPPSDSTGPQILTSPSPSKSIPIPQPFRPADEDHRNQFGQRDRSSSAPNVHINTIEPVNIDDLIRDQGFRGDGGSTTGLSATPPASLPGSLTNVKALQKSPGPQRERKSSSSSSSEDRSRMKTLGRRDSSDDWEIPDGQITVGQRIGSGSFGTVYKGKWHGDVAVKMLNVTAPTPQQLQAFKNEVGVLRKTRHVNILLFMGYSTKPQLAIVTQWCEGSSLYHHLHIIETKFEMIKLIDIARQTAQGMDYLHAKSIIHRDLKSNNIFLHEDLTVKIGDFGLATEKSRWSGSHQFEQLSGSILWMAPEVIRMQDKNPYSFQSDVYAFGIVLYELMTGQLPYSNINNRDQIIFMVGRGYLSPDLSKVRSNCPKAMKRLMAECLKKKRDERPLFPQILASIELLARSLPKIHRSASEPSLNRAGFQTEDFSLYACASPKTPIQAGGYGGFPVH
T2 sequence (P35968 20-1356): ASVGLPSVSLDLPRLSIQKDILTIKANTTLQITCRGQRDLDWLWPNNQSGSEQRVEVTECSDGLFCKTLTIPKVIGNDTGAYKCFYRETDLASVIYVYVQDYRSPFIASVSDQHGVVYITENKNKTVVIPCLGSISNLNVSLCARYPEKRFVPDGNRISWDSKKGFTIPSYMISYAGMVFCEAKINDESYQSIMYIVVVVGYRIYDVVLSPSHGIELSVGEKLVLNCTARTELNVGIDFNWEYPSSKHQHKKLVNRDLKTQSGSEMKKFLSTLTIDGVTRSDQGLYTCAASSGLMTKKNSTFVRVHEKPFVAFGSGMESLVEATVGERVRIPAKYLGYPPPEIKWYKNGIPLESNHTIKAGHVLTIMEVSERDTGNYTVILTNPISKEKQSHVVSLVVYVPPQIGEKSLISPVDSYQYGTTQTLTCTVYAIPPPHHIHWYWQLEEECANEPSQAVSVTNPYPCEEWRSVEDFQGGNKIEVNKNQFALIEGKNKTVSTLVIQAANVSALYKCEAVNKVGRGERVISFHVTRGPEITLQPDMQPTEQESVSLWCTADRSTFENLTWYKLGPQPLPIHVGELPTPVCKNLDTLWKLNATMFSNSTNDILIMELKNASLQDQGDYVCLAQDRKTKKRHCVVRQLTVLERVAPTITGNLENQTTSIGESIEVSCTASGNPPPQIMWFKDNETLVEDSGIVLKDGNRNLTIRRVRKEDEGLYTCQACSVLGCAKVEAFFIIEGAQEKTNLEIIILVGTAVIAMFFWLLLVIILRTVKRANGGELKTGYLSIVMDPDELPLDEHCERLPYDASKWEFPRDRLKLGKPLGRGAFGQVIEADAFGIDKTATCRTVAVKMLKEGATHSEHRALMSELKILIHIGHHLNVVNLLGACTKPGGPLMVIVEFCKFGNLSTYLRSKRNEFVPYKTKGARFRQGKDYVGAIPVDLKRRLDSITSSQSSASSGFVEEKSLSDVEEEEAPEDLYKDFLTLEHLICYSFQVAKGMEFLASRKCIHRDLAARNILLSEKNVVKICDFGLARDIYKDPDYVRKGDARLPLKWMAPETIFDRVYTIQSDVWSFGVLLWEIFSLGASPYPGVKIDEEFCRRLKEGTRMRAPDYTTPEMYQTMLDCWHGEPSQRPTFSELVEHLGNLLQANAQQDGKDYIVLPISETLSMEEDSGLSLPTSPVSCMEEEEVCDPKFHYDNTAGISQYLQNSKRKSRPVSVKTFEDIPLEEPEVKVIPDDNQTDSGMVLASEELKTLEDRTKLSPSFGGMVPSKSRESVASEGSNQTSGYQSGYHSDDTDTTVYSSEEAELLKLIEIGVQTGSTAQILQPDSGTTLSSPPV

SMILES: Cc1c2cc(Cl)ccc2n2cc(Cc3ccccc3)[nH]c(=O)c12 [Compound 6]
- GI50 ([1]; three cancer cell lines, read-out: GI50 vs three cancer cell lines): 500 nM
- IC50 [2]: 100 nM

SMILES: O=C(NCC(c1ccccc1)c1c(-c2ccccc2)[nH]c2ccccc12)c1[nH]c2ccc(Cl)cc2c1CO (centres unmarked) [Ve, 5-Chloro-3-(hydroxymethyl)-N-(2-phenyl-2-(2-phenyl-1H-indol-3-yl)ethyl)-1H-indole-2-carboxamide]
- viability at 96 h, 50 µM [3]: 90%
- IC50 [4]: 42 ± 4 nM
- IC50 [5]: 46 ± 4 nM
- IC50 [6]: 44 ± 4 nM
- IC50 [7]: 45 ± 4 nM
- GI50 [8]: 44 nM
- Caspase-3 Conc [9]: 462 ± 4 pg/mL
- Caspase-3 Fold Change [9]: 7
- melting point: 132 to 134 °C
- IC50 [10]: 94 ± 7 nM
- IC50 [11]: 1.1 ± 0.08 nM
- IC50 [12]: 97 ± 8 nM

SMILES: CCc1c(C(=O)NCCc2ccc(N3CCOCC3)cc2)[nH]c2ccc(C)cc12 [Compound 12]
- GI50 [1, 18]: 37 nM
- IC50 [13]: 16 nM

SMILES: C=CC(=O)Nc1cc(Nc2nccc(-c3cn(C)c4ccccc34)n2)c(OC)cc1N(C)CCN(C)C [Osimertinib]
- selectivity for the mutant protein over wild-type EGFR [14]: approximately 200 times

SMILES: CCOCc1c2n(c3ccc(Cl)cc13)C(=O)CN(CCc1ccc(N3CCOCC3)cc1)C2=O [Compound 9]
- GI50 [1, 18]: 35 nM
- IC50 [2]: 45 nM

SMILES: O=C(NCC(c1ccccc1)c1c(-c2ccccc2)[nH]c2ccccc12)c1[nH]c2ccc(Cl)cc2c1-c1ccccc1 (centres unmarked) [Vf, 5-Chloro-3-phenyl-N-(2-phenyl-2-(2-phenyl-1H-indol-3-yl)ethyl)-1H-indole-2-carboxamide]
- viability at 96 h, 50 µM [3]: 91%
- IC50 [4]: 46 ± 4 nM
- IC50 [5]: 49 ± 4 nM
- IC50 [6]: 48 ± 4 nM
- IC50 [7]: 48 ± 4 nM
- GI50 [8]: 48 nM
- melting point: 131 to 133 °C
- IC50 [10]: 103 ± 8 nM
- IC50 [11]: 2.5 ± 0.2 nM
- IC50 [12]: 107 ± 9 nM

SMILES: Cc1c(C(=O)NCCc2ccc(N3CCCC3C)cc2)[nH]c2ccc(Cl)cc12 (centres unmarked) [Compound 10]
- GI50 [1, 18]: 950 nM
- IC50 [13]: 13 nM

SMILES: CCOC(=O)c1[nH]c2ccc(Cl)cc2c1CNCCc1cccc(N2CCCCC2)c1 [Compound 11]
- GI50 [1, 18]: 29 nM
- IC50 [2]: 35 nM
- IC50 [15]: 8.6 nM

SMILES: c1nc(Nc2ccc(N3CCOCC3)cc2)cc(Oc2ccc3[nH]ccc3c2)n1 [Compound 4]
- IC50 [16]: 1200 nM
- IC50 [17]: 7 nM

SMILES: CCOCc1c(C(=O)NCC(c2ccccc2)c2c(-c3ccccc3)[nH]c3ccccc23)[nH]c2ccc(Cl)cc12 (centres unmarked) [Compound Vh, 5-Chloro-3-(ethoxymethyl)-N-(2-phenyl-2-(2-phenyl-1H-indol-3-yl)ethyl)-1H-indole-2-carboxamide]
- viability at 96 h, 50 µM [3]: 90%
- IC50 [4]: 34 ± 3 nM
- IC50 [5]: 38 ± 3 nM
- IC50 [6]: 36 ± 3 nM
- IC50 [7]: 38 ± 3 nM
- GI50 [8]: 37 nM
- Caspase-3 Conc [9]: 460 ± 4 pg/mL
- Caspase-3 Fold Change [9]: 7
- melting point: 210 to 212 °C
- IC50 [10]: 85 ± 7 nM
- IC50 [11]: 3.25 ± 0.25 nM
- IC50 [12]: 89 ± 7 nM

SMILES: Cc1c2n(c3ccc(Cl)cc13)C(=O)CN(CCc1ccc(N3CCOCC3)cc1)C2=O [Compound 7]
- GI50 [1, 18]: 1100 nM
- IC50 [2]: 150 nM

Reference: paper PMC10385579, “Design, Synthesis, and Biological Evaluation of Indole-2-carboxamides as Potential Multi-Target Antiproliferative Agents” (Pharmaceuticals, 2023)
